Test results reported in patent US4590191A, “Soporific containing lorazepam” (Medichemie AG, priority 1984, dated 1986).
Like-named read-outs stand apart in the source and are kept apart here.

Key:
[1] = tested on: white mice; experiment: Acute oral toxicity (lethality) in mice; conditions: oral, mice
[2] = Acute oral toxicity (lethality) in mice; conditions: mouse, in vivo, po
[3] = cited from earlier work

Compound	DL 95 [1] [mg/kg]	LD50 [2] [mg/kg]	hypnotic or soporific effect (in words) ([3]; 1 mg)	side effects (in words) ([3]; 2 to 3 mg, in individual cases)	half-life (in words) ([3]; in vivo)	ratio between effect and tolerance (in words) ([3]; single dose of 1 mg)	side effects (in words) ([3]; somewhat higher doses, may occur in the next few days)
CN(C)CCOC(c1ccccc1)c1ccccc1 [diphenhydramine, 2-(diphenyl-methoxy)-N,N-dimethyl ethanamine]	645	–	–	–	–	–	–
O=C1Nc2ccc(Cl)cc2C(c2ccccc2Cl)=NC1O (stereo not shown) [lorazepam, 7-chlor-5-(2-chlorphenyl)-1,3-dihydro-3-hydroxy-2H-1,4 benzodiazepin-2-on]	–	3180	often insufficient	subjectively unpleasant side effects can occur	medium half-life	especially good ratio between effect and tolerance	relatively strong side effects, such as muscle relaxation, ataxia and sedative after-effects
